Assay results taken from paper PMC9609996, “SAR Study and Molecular Mechanism Investigation of Novel Naphthoquinone-furan-2-cyanoacryloyl Hybrids with Antitumor Activity” (Pharmaceutics, 2022).

Tests used:
Type in all cases: cell-based, human
HeLa cells = assay: Annexin V-FITC/PI apoptosis assay; details: 12 μM
From the text: Apoptosis in cancer cells could be caused by the generation of intracellular ROS [31, 32, 33]. Three methods were utilized to assess the effect of compound 5c on the apoptosis of HeLa cells. First, Hoechst 33342 was utilized to stain the HeLa cells that were pretreated with different concentrations of compound 5c. Then, the cells were observed under a fluorescence microscope. […] Second, an annexin V-FITC/PI double staining method was used to quantitatively detect the effect of compound 5c on cell apoptosis. A quantitative analysis was performed using a flow cytometry analysis. […] Third, the levels of Bcl-xl family proteins, well-known as apoptosis-related proteins, were determined by Western blotting analysis.
For the cell cycle analysis, HeLa cells seeded in a 6-well plate (3 × 10^5 per well) were incubated with different concentrations of compound 5c or 0.1% DMSO for 24 h. Then, the cells were digested with 0.25% trypsin (without EDTA) and were washed twice with PBS, fixed in 70% ethanol overnight, and stained with PI ([…], Sigma) plus 0.2 mg/mL of DNase-free RNase A (Qiagen) for 20 minutes at room temperature. For the annexin V apoptosis assay, HeLa cells seeded in a 6-well plate (3 × 10^5 per well) were incubated with different concentrations of compound 5c or 0.1% DMSO for 24 h. Then, the cells were digested with 0.25% trypsin (without EDTA) and were washed twice with PBS. […]

ROS in HeLa cells = assay: Cellular ROS detection (DCFDA flow cytometry); details: 6, 9, 12 μM, 6 h
Experimental: To measure reactive oxygen species (ROS) production, 2′,7′-dichlorofluorescein diacetate (DCFDA) (Thermo Fisher Scientific, Waltham, MA, USA; D399) was used. DCFDA is a fluorogenic dye that, after diffusion into the cell, is oxidized by ROS into 2′,7′-dichlorofluorescein (DCF), a highly fluorescent compound that can be detected by fluorescence spectroscopy. To measure ROS production, HeLa cells were treated with compound 5c at 6 μM, 9 μM, and 12 μM for 6 h. Then, cells were washed with pre-warmed 1X PBS and were incubated at 37 °C with 10 μM of DCFDA for 30 min in PBS. Subsequently, the HeLa cells were washed and analyzed in FL-1 using a FACScalibur flow cytometer (BD, USA) and using CELL Quest software (BD Biosciences, San Jose, CA, USA). Live cells were gated according to their forward scatter (FSC) and side scatter (SSC) properties. For each analysis, 20,000 events were recorded.

[1] = tested on: AKT phosphorylation in HeLa cells; assay: Western blot, AKT phosphorylation; details: 6 h interval
Experimental: Protein levels were determined by the standard Western blot assay. […] Cells harvested with trypsin were treated with 1× RIPA lysis buffer (50 mM Tris-HCl, pH 7.4, 150 mM NaCl, 0.25% deoxycholic acid, 1% NP-40, 1 mM ethylenediaminetetraacetate (EDTA), and protease inhibitor PMSF (Solarbio, Beijing, China) to extract the total proteins. Then, an aliquot of proteins from the total cell lysates (4–40 μg/lane) was separated using sodium dodecyl sulfate (8, 10, or 12%) polyacrylamide gel electrophoresis (BioRad Laboratories, Hercules, CA, USA). The aliquot was wet-transferred to a PVDF membrane (BioRad Laboratories, Hercules, CA, USA), blotted with primary antibodies (purchased from Cell Signaling Technology, Danvers, MA, USA) specific for the STAT3 (#12640), p-STAT3 (#9145), AKT (#4691), p-AKT (#4060), Bax (#5023), Bcl-xl (#2764), secondary isotype-specific antibodies (#7074) and glyceraldehyde-3-phosphate dehydro-genase (GAPDH, #2118) as the internal standard overnight; then, they were probed with secondary isotype-specific antibodies for another 2 h at 37 °C. The bound immuno-complexes were detected using a ChemiDOC XRS+ system (BioRad Laboratories, Hercules, CA, USA).

Bcl-xl in HeLa cells = assay: Western blot, Bcl-xl; details: 6–12 μM, 24 h
Experimental: Protein levels were determined by the standard Western blot assay. HeLa cells were incubated with different concentrations of compound 5c or 0.1% DMSO for 24 h. Cells harvested with trypsin were treated with 1× RIPA lysis buffer (50 mM Tris-HCl, pH 7.4, 150 mM NaCl, 0.25% deoxycholic acid, 1% NP-40, 1 mM ethylenediaminetetraacetate (EDTA), and protease inhibitor PMSF (Solarbio, Beijing, China) to extract the total proteins. Then, an aliquot of proteins from the total cell lysates (4–40 μg/lane) was separated using sodium dodecyl sulfate (8, 10, or 12%) polyacrylamide gel electrophoresis (BioRad Laboratories, Hercules, CA, USA). The aliquot was wet-transferred to a PVDF membrane (BioRad Laboratories, Hercules, CA, USA), blotted with primary antibodies (purchased from Cell Signaling Technology, Danvers, MA, USA) specific for the STAT3 (#12640), p-STAT3 (#9145), AKT (#4691), p-AKT (#4060), Bax (#5023), Bcl-xl (#2764), secondary isotype-specific antibodies (#7074) and glyceraldehyde-3-phosphate dehydro-genase (GAPDH, #2118) as the internal standard overnight; then, they were probed with secondary isotype-specific antibodies for another 2 h at 37 °C. The bound immuno-complexes were detected using a ChemiDOC XRS+ system (BioRad Laboratories, Hercules, CA, USA).

Question: For `N#C/C(=C\c1ccc(C2=CC(=O)c3ccccc3C2=O)o1)C(=O)NCCN1CCOCC1` [Compound 5c, (E)-2-cyano-3-(5-(1,4-dioxo-1,4-dihydronaphthalen-2-yl)furan-2-yl)-N-(2-morpholinoethyl)acrylamide], which “percentage of apoptotic cells” value (HeLa cells) is on record?
Answer: Its value is 46.70%.

Question: And the “level of ROS in cancer cells” value (ROS in HeLa cells)?
Answer: The value was “significantly increased”.

Question: And the “phosphorylation level of AKT” value [1]?
Answer: Its value is “effectively inhibited”.

Question: What about the “total Bcl-xl levels” value (Bcl-xl in HeLa cells) of the same compound?
Answer: Its value is “significantly decreased”.
